IC50 and inhibition data for 36 compounds are collected here from ChEMBL document CHEMBL1140800, “Identification of 2-amino-5-(thioaryl)thiazoles as inhibitors of nerve growth factor receptor TrkA” (Bioorg Med Chem Lett, 2008).

A word on the pIC50: it is −log10 of the IC50, conventionally taken in molar units. Read a high pIC50 as a low IC50. The inhibition is the drop in the measured response relative to a control, in per cent. Higher therefore signals a response far below the control.

pIC50: −log10 of the molar value.

One experiment relates to SH-SY5Y. As to the kind of experiment: Antiproliferative activity against human SH-SY5Y cells after 3 days. The format is functional, cell-based. The following applies: 72 h.
A short description of experiment [1]: Antiproliferative activity against TrkA deficient rat RK3E cells after 3 days. It is filed as functional, cell-based. The following applies: 72 h.
Experiment [2] is described as follows: Antiproliferative activity against rat RKE cells expressing CD8-TrkA after 3 days. The format is functional, cell-based. The following applies: 72 h.
In experiment [3] the target is High affinity nerve growth factor receptor (Homo sapiens, UniProt P04629). The experiment can be described thus: Inhibition of TrkA.
Experiment [4] in a line: Inhibition of VEGFR.
Experiment [5] has as its target Hepatocyte growth factor receptor (Homo sapiens, UniProt P08581). As to the kind of experiment: Inhibition of Met.
The target of experiment [6] is Insulin-like growth factor 1 receptor (Homo sapiens, UniProt P08069). As to the kind of experiment: Inhibition of IGF1R.
Experiment [7] deals with Cyclin-dependent kinase 2 (Homo sapiens, UniProt P24941). The experiment can be described thus: Inhibition of CDK2.
Experiment [8] is described as follows: Inhibition of VEGFR at 2 uM.

Chain of Insulin-like growth factor 1 receptor (P08069 31-736 limits assumed): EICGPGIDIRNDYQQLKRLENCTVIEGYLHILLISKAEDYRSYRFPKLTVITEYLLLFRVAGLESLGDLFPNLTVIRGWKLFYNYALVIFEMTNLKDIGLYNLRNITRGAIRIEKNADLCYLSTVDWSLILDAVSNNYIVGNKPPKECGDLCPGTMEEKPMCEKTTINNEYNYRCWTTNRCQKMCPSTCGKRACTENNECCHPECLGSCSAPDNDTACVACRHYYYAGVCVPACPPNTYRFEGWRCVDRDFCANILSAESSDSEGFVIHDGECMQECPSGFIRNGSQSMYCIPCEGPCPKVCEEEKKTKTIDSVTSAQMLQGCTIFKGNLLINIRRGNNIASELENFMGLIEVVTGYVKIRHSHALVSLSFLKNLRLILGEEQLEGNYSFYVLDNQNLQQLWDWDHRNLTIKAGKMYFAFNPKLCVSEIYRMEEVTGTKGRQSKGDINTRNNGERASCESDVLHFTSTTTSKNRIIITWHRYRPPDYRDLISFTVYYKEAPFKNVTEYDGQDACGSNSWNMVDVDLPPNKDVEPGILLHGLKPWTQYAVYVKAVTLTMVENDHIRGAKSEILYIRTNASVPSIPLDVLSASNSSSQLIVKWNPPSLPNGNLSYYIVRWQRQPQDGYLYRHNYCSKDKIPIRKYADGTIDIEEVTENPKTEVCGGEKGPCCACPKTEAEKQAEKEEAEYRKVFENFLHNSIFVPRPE
Chain of Insulin-like growth factor 1 receptor (P08069 741-1367 limits assumed): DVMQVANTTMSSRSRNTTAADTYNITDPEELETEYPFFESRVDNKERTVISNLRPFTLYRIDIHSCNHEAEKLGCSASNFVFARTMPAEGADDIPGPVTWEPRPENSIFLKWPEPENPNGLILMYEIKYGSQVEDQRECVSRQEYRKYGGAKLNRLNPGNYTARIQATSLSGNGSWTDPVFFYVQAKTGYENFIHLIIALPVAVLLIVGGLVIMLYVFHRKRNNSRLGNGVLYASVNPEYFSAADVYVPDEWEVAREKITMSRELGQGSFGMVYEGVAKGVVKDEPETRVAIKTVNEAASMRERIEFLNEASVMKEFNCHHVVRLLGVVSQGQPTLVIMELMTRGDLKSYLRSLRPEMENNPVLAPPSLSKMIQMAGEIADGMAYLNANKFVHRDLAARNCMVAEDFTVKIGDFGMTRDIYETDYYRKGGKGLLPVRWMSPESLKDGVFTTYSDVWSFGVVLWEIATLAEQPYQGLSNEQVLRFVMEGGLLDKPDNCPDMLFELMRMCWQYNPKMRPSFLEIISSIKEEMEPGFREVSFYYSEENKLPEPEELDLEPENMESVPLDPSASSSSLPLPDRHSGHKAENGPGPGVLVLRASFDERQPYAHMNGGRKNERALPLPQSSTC
Chain of Hepatocyte growth factor receptor (P08581 whole entry): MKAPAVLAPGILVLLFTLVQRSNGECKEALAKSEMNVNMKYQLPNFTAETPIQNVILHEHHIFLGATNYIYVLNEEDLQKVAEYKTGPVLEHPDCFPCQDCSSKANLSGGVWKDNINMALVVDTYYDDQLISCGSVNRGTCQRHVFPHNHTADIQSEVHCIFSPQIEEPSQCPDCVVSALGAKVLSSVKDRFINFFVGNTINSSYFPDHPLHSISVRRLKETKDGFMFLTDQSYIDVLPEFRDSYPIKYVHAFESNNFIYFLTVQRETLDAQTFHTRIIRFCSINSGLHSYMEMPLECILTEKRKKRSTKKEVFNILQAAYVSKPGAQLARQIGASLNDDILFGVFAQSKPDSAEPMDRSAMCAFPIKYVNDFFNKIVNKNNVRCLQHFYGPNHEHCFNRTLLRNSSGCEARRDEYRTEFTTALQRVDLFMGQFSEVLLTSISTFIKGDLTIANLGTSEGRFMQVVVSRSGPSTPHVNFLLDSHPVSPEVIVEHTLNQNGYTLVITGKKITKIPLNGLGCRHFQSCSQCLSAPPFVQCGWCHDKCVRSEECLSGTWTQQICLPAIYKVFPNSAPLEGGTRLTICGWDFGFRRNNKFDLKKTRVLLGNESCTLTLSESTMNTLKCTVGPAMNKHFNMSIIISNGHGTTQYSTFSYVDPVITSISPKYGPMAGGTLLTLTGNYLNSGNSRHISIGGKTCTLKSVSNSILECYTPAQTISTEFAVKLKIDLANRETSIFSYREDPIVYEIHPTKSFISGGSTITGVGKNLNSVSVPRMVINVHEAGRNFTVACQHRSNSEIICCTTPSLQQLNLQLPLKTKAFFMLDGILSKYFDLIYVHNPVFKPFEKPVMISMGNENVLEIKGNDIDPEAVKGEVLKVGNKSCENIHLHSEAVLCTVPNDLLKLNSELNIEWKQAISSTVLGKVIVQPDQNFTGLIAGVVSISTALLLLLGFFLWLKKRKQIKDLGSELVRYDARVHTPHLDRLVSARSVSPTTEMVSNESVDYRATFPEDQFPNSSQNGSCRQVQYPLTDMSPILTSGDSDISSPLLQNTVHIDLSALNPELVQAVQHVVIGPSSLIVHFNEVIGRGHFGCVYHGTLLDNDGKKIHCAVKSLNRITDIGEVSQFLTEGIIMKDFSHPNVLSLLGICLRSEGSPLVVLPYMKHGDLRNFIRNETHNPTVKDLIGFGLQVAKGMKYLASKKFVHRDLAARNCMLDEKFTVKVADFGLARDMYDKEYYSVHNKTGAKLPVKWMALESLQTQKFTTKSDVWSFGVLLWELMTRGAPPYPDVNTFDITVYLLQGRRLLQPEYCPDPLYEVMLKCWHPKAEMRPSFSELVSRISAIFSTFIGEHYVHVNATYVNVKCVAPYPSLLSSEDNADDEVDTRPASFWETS
Chain of High affinity nerve growth factor receptor (P04629 whole entry): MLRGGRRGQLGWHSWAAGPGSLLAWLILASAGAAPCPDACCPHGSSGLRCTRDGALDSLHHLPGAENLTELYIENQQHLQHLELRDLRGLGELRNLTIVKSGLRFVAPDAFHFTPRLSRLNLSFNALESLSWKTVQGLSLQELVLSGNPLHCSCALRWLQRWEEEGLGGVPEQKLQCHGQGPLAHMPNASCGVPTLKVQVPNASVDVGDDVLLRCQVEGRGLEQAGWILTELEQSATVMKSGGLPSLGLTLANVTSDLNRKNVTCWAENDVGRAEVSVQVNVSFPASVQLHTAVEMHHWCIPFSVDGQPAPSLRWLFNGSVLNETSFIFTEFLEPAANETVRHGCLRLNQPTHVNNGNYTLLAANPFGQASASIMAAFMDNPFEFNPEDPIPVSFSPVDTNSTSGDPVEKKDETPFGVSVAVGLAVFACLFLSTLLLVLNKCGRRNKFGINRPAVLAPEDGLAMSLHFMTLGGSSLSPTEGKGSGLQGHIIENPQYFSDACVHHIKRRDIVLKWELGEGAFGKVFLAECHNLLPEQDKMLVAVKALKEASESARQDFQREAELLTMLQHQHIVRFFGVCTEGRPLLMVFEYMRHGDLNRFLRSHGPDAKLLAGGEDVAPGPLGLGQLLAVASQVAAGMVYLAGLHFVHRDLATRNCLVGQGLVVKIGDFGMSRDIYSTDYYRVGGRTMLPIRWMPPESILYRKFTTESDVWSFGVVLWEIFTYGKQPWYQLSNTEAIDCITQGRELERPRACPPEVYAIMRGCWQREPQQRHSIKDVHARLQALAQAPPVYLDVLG

In the case of `CC(=O)N1CCN(C(=O)c2cc(Sc3cnc(Nc4cccc(Br)n4)s3)ccc2C)CC1`, the pIC50 with SH-SY5Y is 5.94; in experiment [1] it was 5.64; in experiment [2], 6.60; in experiment [3], 9.00; in experiment [4] it was under 4.60; in experiment [5], under 6.00. Also, the values for the negative logarithm of the IC50 (pIC50) in experiment [6] and in experiment [7] were under 6.00 and 6.31, respectively.

In [3], `Cc1ccc(Sc2cnc(Nc3ccccn3)s2)cc1C(=O)NCCO` showed a pIC50 of 6.12.

With `CC(=O)N1CCCN(C(=O)c2cc(Sc3cnc(Nc4ccccn4)s3)ccc2C)CC1`, in experiment [3], the negative logarithm of the IC50 (pIC50) was 5.96.

Consider `Cc1ccc(Sc2cnc(Nc3cccc(Br)n3)s2)cc1C(=O)NCCC#N`, for which the pIC50 in experiment [3] was 7.17.

In turn, `CCC(=O)N1CCN(C(=O)c2cc(Sc3cnc(Nc4cccc(Br)n4)s3)ccc2C)CC1` had a pIC50 in experiment [3] of 7.68.

`COC(=O)N1CCN(C(=O)c2cc(Sc3cnc(Nc4ccccn4)s3)ccc2C)CC1`: the pIC50 in [3] is 6.68.

The compound `CC(=O)N1CCN(C(=O)c2cccc(Sc3cnc(Nc4ccccn4)s3)c2)CC1` showed a pIC50 in experiment [3] of 6.62. This pIC50 and that of the compound before are within 0.2 log units of each other.

Turning to `Cc1ccc(Sc2cnc(Nc3cccc(Br)n3)s2)cc1C(=O)N(C)CCC#N`, the pIC50 in the experiment with SH-SY5Y is 5.93; in experiment [1], 5.48; in experiment [2], 6.43; in experiment [3], 8.00.

The compound `CC(=O)N1CCN(C(=O)c2ccccc2Sc2cnc(Nc3cccc(Br)n3)s2)CC1` had a pIC50 in experiment [3] of 5.72.

As to `Cc1ccc(Sc2cnc(Nc3cccc(Br)n3)s2)cc1C(=O)N1CCN(CC(N)=O)CC1`, the negative-log IC50 (pIC50) in [3] was 6.82.

In experiment [3], `Cc1ccc(Sc2cnc(Nc3ccccn3)s2)cc1C(=O)NC(C)C` gave a pIC50 of 5.70.

`Cc1ccc(Sc2cnc(Nc3ccccn3)s2)cc1C(=O)N1CCN(S(C)(=O)=O)CC1` gave a pIC50 in experiment [3] of 6.04.

As for `CNCCN(C)C(=O)c1cc(Sc2cnc(Nc3cccc(Br)n3)s2)ccc1C`, the negative-log IC50 (pIC50) with SH-SY5Y was 5.78; in [1], 5.51; in experiment [2] it was 6.34; in [3], 7.51; in experiment [5] it was under 6.00; in [6], under 6.00. Moreover, the pIC50 in experiment [7] was 6.74. The inhibition in experiment [8] was found to be 8%.

Take `CCN1CCN(C(=O)c2cc(Sc3cnc(Nc4cccc(Br)n4)s3)ccc2C)CC1`: in experiment [3], the pIC50 was 6.64.

`Cc1ccc(Sc2cnc(Nc3ccccn3)s2)cc1C(=O)NCC#N` gave a negative-log IC50 (pIC50) in experiment [3] of 7.36.

Take `CC(=O)N1CCN(C(=O)c2ccc(Sc3cnc(Nc4cccc(Br)n4)s3)cc2)CC1`: the negative-log IC50 (pIC50) in experiment [3] was 5.89.

Consider `Cc1ccc(Sc2cnc(Nc3ccccn3)s2)cc1C(=O)NCc1ccccc1`, for which, in experiment [3], the negative-log IC50 (pIC50) is under 5.30.

With `Cc1ccc(Sc2cnc(Nc3ccccn3)s2)cc1C(=O)N1CCNCC1`, the pIC50 in experiment [3] is 6.80.

Regarding `Cc1ccc(Sc2cnc(Nc3ccccn3)s2)cc1C(N)=O`, the pIC50 in experiment [3] was 6.10.

As to `Cc1ccc(Sc2cnc(Nc3cccc(Br)n3)s2)cc1C(=O)N1CCN(C(=O)[C@@H](C)N)CC1`, the pIC50 was 5.75 in the experiment on SH-SY5Y; 5.44 in experiment [1]; 6.64 in experiment [2]; 9.00 in experiment [3]; 6.77 in experiment [5]; 6.15 in experiment [6]. The compound also gave a pIC50 in experiment [7] of 6.64.

Regarding `CCNC(=O)c1cc(Sc2cnc(Nc3ccccn3)s2)ccc1C`, the pIC50 in the experiment with SH-SY5Y is under 5.00; in experiment [1], under 5.00; in [2] it was under 5.00; in [3], under 5.30.

`Cc1ccc(Sc2cnc(Nc3ccccn3)s2)cc1C(=O)NCCC#N` showed a pIC50 in experiment [3] of 7.19.

`CC(=O)Nc1ncc(Sc2ccc(C)c(C(=O)N3CCN(C(C)=O)CC3)c2)s1`: the pIC50 in [3] is under 5.30.

For the compound `Cc1ccc(Sc2cnc(Nc3cccc(Br)n3)s2)cc1C(=O)N(C)CC#N`, the pIC50 in the experiment with SH-SY5Y is 6.12; in [1], 5.52; in [2], 6.41; in [3], 8.70.

The compound `CC(=O)N1CCN(C(=O)c2cccc(Sc3cnc(Nc4cccc(C)n4)s3)c2)CC1` showed a pIC50 in experiment [3] of 5.96.

On to `CC(=O)N1CCN(Cc2cc(Sc3cnc(Nc4ccccn4)s3)ccc2C)CC1`, for which, in experiment [3], the pIC50 is 6.14.

Compound `CC(=O)N1CCN(C(=O)c2cc(Sc3cnc(Nc4ccccn4)s3)ccc2C)CC1` showed a pIC50 in [3] of 7.10.

Compound `CC(=O)NCCNC(=O)c1cc(Sc2cnc(Nc3ccccn3)s2)ccc1C` had a pIC50 in [3] of 6.49.

Turning to `CC(=O)N1CCN(C(=O)c2cccc(Sc3cnc(Nc4cccc(Br)n4)s3)c2)CC1`, the pIC50 in experiment [3] is 7.30. This pIC50 lies 0.81 log units higher than the previous one.

Consider `CC(=O)N1CCN(C(=O)c2cccc(Sc3cnc(Nc4ccc(Br)cn4)s3)c2)CC1`, for which the pIC50 in [3] is 6.28.

The compound `C#CCNC(=O)c1cc(Sc2cnc(Nc3ccccn3)s2)ccc1C` gave a pIC50 in experiment [3] of 5.92.

As for `CNCCNC(=O)c1cc(Sc2cnc(Nc3ccccn3)s2)ccc1C`, the pIC50 in experiment [3] was 6.72. This pIC50 is 0.80 log units higher than that of the compound before.

In the case of `Cc1ccc(Sc2cnc(Nc3cccc(Br)n3)s2)cc1C(=O)N1CCN(C(=O)CN)CC1`, the pIC50 with SH-SY5Y was 5.51; in experiment [1], 5.39; in experiment [2] it was 6.26; in experiment [3], 9.22; in experiment [5] it was 6.37; in experiment [6] it was under 6.00. The pIC50 in experiment [7] was 6.27.

Turning to `Cc1ccc(Sc2cnc(Nc3cccc(Br)n3)s2)cc1C(=O)N1CCN(C(=O)[C@H](C)N)CC1`, the pIC50 in the experiment on SH-SY5Y was 5.37; in [1], 5.45; in experiment [2], 5.94; in experiment [3], 9.00; in experiment [5] it was under 6.00; in experiment [6], 6.44. Also, the negative-log IC50 (pIC50) in [7] was 6.28.

On to `Cc1ccc(Sc2cnc(Nc3ccccn3)s2)cc1NC(=O)CC#N`, for which the pIC50 in experiment [3] is 7.22.

On to `CC(=O)N1CCN(C(=O)c2cc(Sc3cnc(N)s3)ccc2C)CC1`, for which the pIC50 in experiment [3] was under 5.30.
